These results are taken from patent publication US20210047291A1, “PESTICIDALLY ACTIVE HETEROCYCLIC DERIVATIVES WITH SULFUR CONTAINING SUBSTITUENTS” (SYNGENTA PARTICIPATIONS AG, priority 2018, published 2021).

Common to all, as to assay type: in vivo
Assay [1] concerns Spodoptera littoralis (Egyptian Cotton Leaf Worm). In words: Example B9: Spodoptera littoralis, cotton leaf discs (mortality, anti-feeding, growth inhibition). As to conditions: foliar, 72 h, read-out: control (mortality, anti-feeding effect or growth inhibition). As for the experimental part:
Cotton leaf discs were placed onto agar in 24-well microtiter plates and sprayed with aqueous test solutions prepared from 10,000 ppm DMSO stock solutions. After drying the leaf discs were infested with five L1 larvae. The samples were assessed for mortality, anti-feeding effect, and growth inhibition in comparison to untreated samples 3 days after infestation. Control of Spodoptera littoralis by a test sample is given when at least one of the categories mortality, anti-feedant effect, and growth inhibition is higher than the untreated sample.

For assay [2], the system named is Myzus persicae (Green peach aphid). The assay is described as follows: Example B5: Myzus persicae feeding/contact activity, sunflower leaf discs. The following applies: foliar; for mortality at 200 ppm: 144 h. As for the experimental part: Sunflower leaf discs were placed onto agar in a 24-well microtiter plate and sprayed with aqueous test solutions prepared from 10,000 ppm DMSO stock solutions. After drying, the leaf discs were infested with an aphid population of mixed ages. The samples were assessed for mortality 6 days after infestation.

Assay [3] deals with Plutella xylostella (Diamond Back Moth). In words: Example B7: Plutella xylostella, artificial diet, L2 larvae. As to conditions: 120 h, read-out: effect in at least one of the two categories (mortality or growth inhibition); for percent effect (mortality or growth inhibition) at 200 ppm: application rate of 200 ppm, L2 larvae, 5 days after infestation. As for the experimental part:
24-well microtiter plates with artificial diet were treated with aqueous test solutions prepared from 10,000 ppm DMSO stock solutions by pipetting. After drying, the plates were infested with L2 larvae (10 to 15 per well). The samples were assessed for mortality and growth inhibition in comparison to untreated samples 5 days after infestation.

The test system of assay [4] is Euschistus heros (Neotropical Brown Stink Bug). The assay is described as follows: Example B3: Euschistus heros, soybean leaves, N2 nymphs. The following applies: for percent effect (mortality or growth inhibition) at 200 ppm: 120 h, read-out: effect in at least one of the two categories (mortality or growth inhibition). The procedure:
Soybean leaves on agar in 24-well microtiter plates were sprayed with aqueous test solutions prepared from 10,000 ppm DMSO stock solutions. After drying the leaves were infested with N2 nymphs. The samples were assessed for mortality and growth inhibition in comparison to untreated samples 5 days after infestation.

Another assay has as its system Melodoigyne incognita. The assay is described as follows: Example B14: Melodoigyne incognita juvenile mobility, in vitro profiling in 96 well plate. As to conditions: read-out: control (juvenile mobility). The procedure: Test solutions are prepared from 10,000 ppm DMSO stock solutions with a TECAN robot to achieve 20 μL of 1000, 200, 100, 50, 25 and 12.5 ppm. For each concentration three replicates are produced. Per well, 80 μL nematode solution is added containing 100 to 150 freshly harvested second stage juveniles of Melodoigyne incognita. The plates are covered and stored at room temperature in the dark and incubated for 24 h. Mobility of the exposed juveniles in a treated well is measured using an imaging tool and compared to an average of 12 untreated replicates.

Assay [5] deals with Myzus persicae (Green peach aphid). The assay is described as follows: Example B6: Myzus persicae systemic activity, pea seedlings. The following applies: for mortality at 24 ppm: 144 h. The procedure: Roots of pea seedlings infested with an aphid population of mixed ages were placed directly into aqueous test solutions prepared from 10,000 DMSO stock solutions. The samples were assessed for mortality 6 days after placing seedlings into test solutions.

The test system of assay [6] is Diabrotica Balteata (Corn Root Worm). In words: Example B2: Diabrotica balteata, maize sprouts, L2 larvae. As to conditions: Diabrotica balteata, 96 h, application rate of 200 ppm; L2 larvae; 4 days after infestation; read-out: effect in at least one of the two categories (mortality or growth inhibition). The procedure: Maize sprouts placed onto an agar layer in 24-well microtiter plates were treated with aqueous test solutions prepared from 10,000 ppm DMSO stock solutions by spraying. After drying, the plates were infested with L2 larvae (6 to 10 per well). The samples were assessed for mortality and growth inhibition in comparison to untreated samples 4 days after infestation.

The mark [7] stands for this setting: application rate of 200 ppm, L1 larvae, 3 days after infestation.
[8] abbreviates: Myzus persicae, application rate of 200 ppm, mixed ages, 6 days after infestation, read-out: mortality.
Setting [9] is: Euschistus heros, application rate of 200 ppm, N2 nymphs, 5 days after infestation.
Setting [10] is: 200 ppm, after 24 h, second stage juveniles.
Setting [11] is: Myzus persicae, test rate of 24 ppm, mixed ages, 6 days after placing seedlings into test solutions, read-out: mortality.

Read-outs that look alike come from different tables or passages of the source. Where only a bound is given, the exact number is not on record here.

As usually defined, the mortality is the percentage killed. As to `CCS(=O)(=O)c1cc(N2CCCC2=O)cnc1-c1nc2cc(C(F)(F)F)ncc2n1C` [P5, 1-[5-ethylsulfonyl-6-[3-methyl-6-(trifluoromethyl)imidazo[4,5-c]pyridin-2-yl]-3-pyridyl]pyrrolidin-2-one], the percent control (mortality, anti-feedant effect or growth inhibition) at 200 ppm in assay [1] was not below 80%. In assay [2] (Myzus persicae), this compound showed a mortality at 12.5 ppm of 0% and a mortality at 200 ppm not below 80%. Moreover, the percent control (mortality or growth inhibition) at 200 ppm in assay [3] is not below 80%. In addition, in assay [4] (Euschistus heros), the mortality at 50 ppm amounted to 100% and the percent effect (mortality or growth inhibition) at 200 ppm was not below 80%. Also, the pest or weed control at 200 ppm in the assay on Melodoigyne incognita (24 h) was not below 80%. In addition, in assay [5] (Myzus persicae), the mortality at 1.5 ppm is 80% and the mortality at 24 ppm is not below 80%.
On to `CCS(=O)(=O)c1cc(N(C(C)=O)C2CC2)cnc1-c1nc2cc(C(F)(F)F)ncc2n1C` [P10, N-cyclopropyl-N-[5-ethylsulfonyl-6-[3-methyl-6-(trifluoromethyl)imidazo[4,5-c]pyridin-2-yl]-3-pyridyl]acetamide], for which the percent control (mortality, anti-feedant effect or growth inhibition) at 200 ppm in assay [1] (setting [7]) is not below 80%. In assay [2] (setting [8]), the mortality at 200 ppm is not below 80%. For the same compound, the percent effect (mortality or growth inhibition) at 200 ppm in assay [3], in assay [4] (setting [9]) and in assay [6] was not below 80% each time. For the same compound, in the assay on Melodoigyne incognita (setting [10]), the pest or weed control at 200 ppm was not below 80%. Moreover, the mortality at 24 ppm in assay [5] (setting [11]) was not below 80%.
For the compound `CCS(=O)(=O)c1cc(N(C)C(=O)C(F)(F)F)cnc1-c1nc2cc(C(F)(F)F)ncc2n1C` [P11, N-[5-ethylsulfonyl-6-[3-methyl-6-(trifluoromethyl)imidazo[4,5-c]pyridin-2-yl]-3-pyridyl]-2,2,2-trifluoro-N-methyl-acetamide], the percent control (mortality, anti-feedant effect or growth inhibition) at 200 ppm in assay [1] (setting [7]) was not below 80%. Further, in assay [2] (setting [8]), the mortality at 200 ppm was not below 80%. In addition, the percent effect (mortality or growth inhibition) at 200 ppm in assay [3], in assay [4] (setting [9]) and in assay [6] was not below 80% each time. Further, in the assay on Melodoigyne incognita (setting [10]), the pest or weed control at 200 ppm was not below 80%. Moreover, the mortality at 24 ppm in assay [5] (setting [11]) was not below 80%.
`CCS(=O)(=O)c1cc(N(C)C(=O)COC)cnc1-c1nc2cc(C(F)(F)F)ncc2n1C` [P12, N-[5-ethylsulfonyl-6-[3-methyl-6-(trifluoromethyl)imidazo[4,5-c]pyridin-2-yl]-3-pyridyl]-2-methoxy-N-methyl-acetamide]: the percent control (mortality, anti-feedant effect or growth inhibition) at 200 ppm in assay [1] (setting [7]) was not below 80%. Besides, in assay [2] (setting [8]), the mortality at 200 ppm was not below 80%. The percent effect (mortality or growth inhibition) at 200 ppm in assay [3], in assay [4] (setting [9]) and in assay [6] was not below 80% each time. The pest or weed control at 200 ppm in the assay on Melodoigyne incognita (setting [10]) is not below 80%. The mortality at 24 ppm in assay [5] (setting [11]) was not below 80%.
In the case of `CCS(=O)(=O)c1cc(N(C)C(=O)CS(C)(=O)=O)cnc1-c1nc2cc(C(F)(F)F)ncc2n1C` [P17, N-[5-ethylsulfonyl-6-[3-methyl-6-(trifluoromethyl)imidazo[4,5-c]pyridin-2-yl]-3-pyridyl]-N-methyl-2-methylsulfonyl-acetamide], the percent control (mortality, anti-feedant effect or growth inhibition) at 200 ppm in assay [1] (setting [7]) is not below 80%. Also, the mortality at 200 ppm in assay [2] (setting [8]) was not below 80%. The percent effect (mortality or growth inhibition) at 200 ppm in assay [4] (setting [9]) and in assay [6] was not below 80% each time. In addition, the pest or weed control at 200 ppm in the assay on Melodoigyne incognita (setting [10]) is not below 80%. Besides, the mortality at 24 ppm in assay [5] (setting [11]) is not below 80%.
For `CCS(=O)(=O)c1cc(N(C)C(=O)CCl)cnc1-c1nc2cc(C(F)(F)F)ncc2n1C` [P22, 2-chloro-N-[5-ethylsulfonyl-6-[3-methyl-6-(trifluoromethyl)imidazo[4,5-c]pyridin-2-yl]-3-pyridyl]-N-methyl-acetamide], in assay [1] (setting [7]), the percent control (mortality, anti-feedant effect or growth inhibition) at 200 ppm was not below 80%. For the same compound, the mortality at 200 ppm in assay [2] (setting [8]) was not below 80%. Further, the percent effect (mortality or growth inhibition) at 200 ppm in assay [4] (setting [9]) was not below 80%. The pest or weed control at 200 ppm with Melodoigyne incognita (setting [10]) was not below 80%. In addition, the mortality at 24 ppm in assay [5] (setting [11]) is not below 80%.
As for `CCS(=O)(=O)c1cc(N(OC)C(=O)C2CC2)cnc1-c1nc2cc(C(F)(F)F)ncc2n1C` [P24, N-[5-ethylsulfonyl-6-[3-methyl-6-(trifluoromethyl)imidazo[4,5-c]pyridin-2-yl]-3-pyridyl]-N-methoxy-cyclopropanecarboxamide], the percent control (mortality, anti-feedant effect or growth inhibition) at 200 ppm in assay [1] (setting [7]) is not below 80%. For the same compound, the percent effect (mortality or growth inhibition) at 200 ppm in assay [3], in assay [4] (setting [9]) and in assay [6] was not below 80% throughout. In addition, the pest or weed control at 200 ppm in the assay with Melodoigyne incognita (setting [10]) was not below 80%.
In the case of `CCC(=O)Nc1cnc(-c2nc3cc(C(F)(F)F)ncc3n2C)c(S(=O)(=O)CC)c1` [P25, N-[5-ethylsulfonyl-6-[3-methyl-6-(trifluoromethyl)imidazo[4,5-c]pyridin-2-yl]-3-pyridyl]propanamide], in assay [2] (setting [8]), the mortality at 200 ppm is not below 80%. Moreover, the percent effect (mortality or growth inhibition) at 200 ppm in assay [3], in assay [4] (setting [9]) and in assay [6] was not below 80% each time. Moreover, the pest or weed control at 200 ppm in the assay on Melodoigyne incognita (setting [10]) was not below 80%. Besides, the mortality at 24 ppm in assay [5] (setting [11]) is not below 80%.
For the compound `CCS(=O)(=O)c1cc(N(C)C(=O)C(C)(C)C)cnc1-c1nc2cc(C(F)(F)F)ncc2n1C` [P26, N-[5-ethylsulfonyl-6-[3-methyl-6-(trifluoromethyl)imidazo[4,5-c]pyridin-2-yl]-3-pyridyl]-N,2,2-trimethyl-propanamide], the mortality at 200 ppm in assay [2] (setting [8]) is not below 80%. The percent effect (mortality or growth inhibition) at 200 ppm in assay [3] and in assay [4] (setting [9]) was not below 80% in each case. Also, the pest or weed control at 200 ppm in the assay with Melodoigyne incognita (setting [10]) was not below 80%. The mortality at 24 ppm in assay [5] (setting [11]) was not below 80%.
Consider `CCS(=O)(=O)c1cc(N2CCOC2=O)cnc1-c1nc2cc(C(F)(F)F)ncc2n1C` [P34, 3-[5-ethylsulfonyl-6-[3-methyl-6-(trifluoromethyl)imidazo[4,5-c]pyridin-2-yl]-3-pyridyl]oxazolidin-2-one], for which, in assay [1] (setting [7]), the percent control (mortality, anti-feedant effect or growth inhibition) at 200 ppm was not below 80%. Besides, the mortality at 200 ppm in assay [2] (setting [8]) is not below 80%. In assay [2] (Concentration 12.5 ppm, Myzus persicae (feeding/contact, Example B5), read-out: Mortality (%)), the mortality at 12.5 ppm was 100%. Also, the percent effect (mortality or growth inhibition) at 200 ppm in assay [3] and in assay [4] (setting [9]) was not below 80% each time. The mortality at 50 ppm in assay [4] (Concentration 50 ppm, Euschistus heros (Example B3), read-out: Mortality (%)) turned out to be 80%. In addition, the pest or weed control at 200 ppm in the assay with Melodoigyne incognita (setting [10]) is not below 80%. Besides, in assay [5] (Concentration 1.5 ppm, Myzus persicae (systemic, Example B6), read-out: Mortality (%)), the mortality at 1.5 ppm is 100%. Also, in assay [5] (setting [11]), the mortality at 24 ppm was not below 80%.
Regarding `CCS(=O)(=O)c1cc(N2CCN(OC)C2=O)cnc1-c1nc2cc(C(F)(F)F)ncc2n1C` [P35, 1-[5-ethylsulfonyl-6-[3-methyl-6-(trifluoromethyl)imidazo[4,5-c]pyridin-2-yl]-3-pyridyl]-3-methoxy-imidazolidin-2-one], in assay [1] (setting [7]), the percent control (mortality, anti-feedant effect or growth inhibition) at 200 ppm is not below 80%. In addition, the mortality at 200 ppm in assay [2] (setting [8]) is not below 80%. Moreover, the percent effect (mortality or growth inhibition) at 200 ppm in assay [4] (setting [9]) is not below 80%. For the same compound, in assay [5] (setting [11]), the mortality at 24 ppm is not below 80%.
